Series [1] relates to SUDHL5. As to the kind of experiment: Induction of cytotoxicity (CellTiter-Glo, 5 h), SUDHL5. Conditions: Homo sapiens, SU-DHL-5, 5 h, read-out: Cytotox SUDHL5 [M] (median), SUDHL5 cells, cytotoxicity induction, CellTiter-Glo, 5 h incubation, median. For orientation: ATP-based viability assays read luminescence as a measure of living cells.
The test system of series [2] is SUDHL5. As to the kind of experiment: Anti-proliferative effect (CellTiter-Glo, 72 h), SUDHL5. Conditions: Homo sapiens, SU-DHL-5, 72 h, SUDHL5 cells, antiproliferation, 72 h incubation, median, read-out: Antiproli SUDHL5 [M] (median). It counts as cell-based. The method, boiled down:
(§1)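 Plate cells alongside a separate day 0 reference plate. Read the reference plate at once with CellTiter-Glo. Incubate treated cells 72 h at 37 °C, then read them the same way by luminescence.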

The target in the next series is MCL-1 (Homo sapiens, UniProt Q07820). As to the kind of experiment: Protein-protein interaction assay MCL-1/Noxa BH3 peptide (MCL-1 assay), TR-FRET. It counts as binding. Conditions: MBP-MCL-1 / Noxa BH3-derived peptide, median. The method, boiled down: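 Steady-state competition, MCL-1/Noxa BH3, TR-FRET readout; 1 nM MBP-MCL-1, 11-point dose series 0.1 nM–20 μM; overnight 4 °C equilibration; 4-parameter IC50.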
(In general: In TR-FRET formats the signal depends on donor and acceptor labels being close together.)

Series [3] relates to SUDHL5. As to the kind of experiment: Induction of caspase-3/7 activity (Caspase-Glo 3/7), SUDHL5. It counts as cell-based. The conditions noted are these: Homo sapiens, SU-DHL-5, 3 h, caspase-3/7 induction, SUDHL5 cells, 3 h treatment; median. The method, boiled down: (§2)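 A 3 h, 37 °C compound incubation precedes the Caspase-Glo 3/7 read. After subtracting medium-only signal, EC50s are fitted against the reference compound's maximal caspase induction.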

For another series, the system named is A2780. Kind of series: Anti-proliferative effect (CellTiter-Glo, 72 h), A2780. It counts as cell-based. Conditions: Homo sapiens, A2780, 72 h, A2780 cells, median, read-out: IC50 antiproliferation assay A2780 [M] (median). The method, boiled down:
as §1

For the next series, the system named is OPM2. Kind of series: Anti-proliferative effect (CellTiter-Glo, 72 h), OPM2. It counts as cell-based. The conditions noted are these: Homo sapiens, OPM-2, 72 h, OPM2 cells, median, read-out: IC50 antiproliferation assay OPM2 [M] (median). The method, boiled down:
as §1

Series [4] concerns SUDHL10. Kind of series: Anti-proliferative effect (CellTiter-Glo, 72 h), SUDHL10. It counts as cell-based. The conditions noted are these: Homo sapiens, SU-DHL10, 72 h, SUDHL10 cells, antiproliferation, 72 h incubation, median, read-out: Antiproli SUDHL10 [M] (median). The method, boiled down: as §1
Series [5] has as its system SUDHL10. Kind of series: Induction of caspase-3/7 activity (Caspase-Glo 3/7), SUDHL10. It counts as cell-based. The conditions noted are these: Homo sapiens, SU-DHL10, 3 h, caspase-3/7 induction, SUDHL10 cells, 3 h treatment; median. The method, boiled down: as §2
The subject of series [6] is SUDHL10. As to the kind of experiment: Induction of cytotoxicity (CellTiter-Glo, 5 h), SUDHL10.
The mark [7] stands for this setting: Homo sapiens, SU-DHL10, 5 h, read-out: Cytotox SUDHL10 [M] (median), SUDHL10 cells, cytotoxicity induction, CellTiter-Glo, 5 h incubation, median.

Each structure is given as a SMILES string. Several values for one entry are separate records, joined by “and”; a condition that tells them apart may be missing. Identical values can stand only once. Where only a bound is given, the exact number is not on record here.

MCL-1, sequence (Q07820 whole entry): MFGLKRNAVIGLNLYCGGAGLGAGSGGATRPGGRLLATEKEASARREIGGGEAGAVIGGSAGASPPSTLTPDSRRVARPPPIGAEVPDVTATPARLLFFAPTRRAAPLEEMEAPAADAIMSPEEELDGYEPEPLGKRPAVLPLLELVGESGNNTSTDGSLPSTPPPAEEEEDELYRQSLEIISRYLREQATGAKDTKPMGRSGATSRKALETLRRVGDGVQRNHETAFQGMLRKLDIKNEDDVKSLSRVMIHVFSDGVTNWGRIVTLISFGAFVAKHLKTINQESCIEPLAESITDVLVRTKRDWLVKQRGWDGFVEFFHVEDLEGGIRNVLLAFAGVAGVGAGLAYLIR

As to `CN1CCN(c2ccc(OCc3nn(C)c4c3-c3cccc5c(CCCOc6cccc7ccccc67)c(C(=O)O)n(c35)CCCCOC4)cc2)CC1` (racemic) [Example 1-7, (rac)-1-methyl-3-{[4-(4-methylpiperazin-1-yl)phenoxy]methyl}-7-[3-(naphthalen-1-yloxy)propyl]-1,10,11,12,13,15-hexahydropyrazolo[4′,3′:9,10][1,6]oxazacycloundecino[8,7,6-hi]indole-8-carboxylic Acid], the IC50 was > 3.3e-05 M with SUDHL5 [1]; 1.63e-06 M in the series on SUDHL5 [2]; 0.0158 µM on MCL-1; > 3.3e-05 M in the series on A2780; > 3.3e-05 M in the series with OPM2; > 3.3e-05 M in the series on SUDHL10 [4]. The IC50 with SUDHL10 [6] (setting [7]) stood at 8.17e-06 M. For the same compound, the EC50 in the series on SUDHL5 [3] and with SUDHL10 [5] was > 33 µM each time.
Regarding `CN(C)S(=O)(=O)N1CCN(c2ccc(OCc3nn(C)c4c3-c3cccc5c(CCCOc6cccc7ccccc67)c(C(=O)O)n(c35)CC=CCOC4)cc2)CC1` (racemic) [Example 1-17, (rac)-(E/Z)-3-({4-([4-(dimethylsulfamoyl)piperazin-1-yl]phenoxy}methyl)-1-methyl-7-[3-(naphthalen-1-yloxy)propyl]-1,10,13,15-tetrahydropyrazolo[4′,3′:9,10][1,6]oxazacycloundecino[8,7,6-hi]indole-8-carboxylic Acid], the IC50 in the series with SUDHL5 [1] came out at 4.36e-06 M; in the series on SUDHL5 [2] it was 2.99e-06 M; on MCL-1, 0.0127 µM; in the series with A2780, 8.94e-06 M; in the series with OPM2 it was 4.37e-06 M; in the series with SUDHL10 [4], 4.25e-06 M. The IC50 in the series on SUDHL10 [6] (setting [7]) is 6.88e-06 M. The EC50 (usually the concentration needed to bring the measured effect to its halfway point) was determined as 3.73 µM in the series on SUDHL5 [3] and 4.39 µM with SUDHL10 [5].
As to `Cn1nc(COc2ccc(N3CCN(C(=O)C4CC4)CC3)cc2)c2c1COCCCCn1c(C(=O)O)c(CCCOc3cccc4ccccc34)c3cccc-2c31` (racemic) [Example 1-21, (rac)-3-({4-[4-(cyclopropylcarbonyl)piperazin-1-yl]phenoxy}methyl)-1-methyl-7-[3-(naphthalen-1-yloxy)propyl]-10,11,12,13,15-hexahydropyrazolo[4′,3′:9,10][1,6]oxazacycloundecino[8,7,6-hi]indole-8-carboxylic Acid], the IC50 turned out to be 2.31e-06 M in the series with SUDHL5 [1]; 2.41e-06 M with SUDHL5 [2]; 0.00106 µM against MCL-1; 1.29e-05 M in the series on A2780; 3.61e-06 M with OPM2; 2.49e-06 M with SUDHL10 [4]. Further, in the series on SUDHL10 [6] (setting [7]), the IC50 was found to be 3.26e-06 M. The EC50 in the series with SUDHL5 [3] is 2.34 µM; in the series with SUDHL10 [5] it was 2.82 µM.
Take `CC(=O)N1CCN(c2ccc(OCc3nn(C)c4c3-c3cccc5c(CCCOc6cccc7ccccc67)c(C(=O)O)n(c35)CCCCOC4)cc2)CC1` (racemic) [Example 1-24, (rac)-3-{[4-(4-acetylpiperazin-1-yl)phenoxy]methyl}-1-methyl-7-[3-(naphthalen-1-yloxy)propyl]-1,10,11,12,13,15-hexahydropyrazolo[4′,3′:9,10][1,6]oxazacycloundecino[8,7,6-hi]indole-8-carboxylic Acid]: the IC50 in the series with SUDHL5 [1] is 2.23e-06 M; in the series on SUDHL5 [2] it was 4.7e-06 M; against MCL-1 it was 0.00231 µM; in the series on A2780, > 3.3e-05 M; in the series on OPM2, 2.97e-05 M; in the series on SUDHL10 [4], 6.52e-06 M. In addition, the IC50 in the series on SUDHL10 [6] (setting [7]) stood at 4.33e-06 M. The EC50 is 4.28 µM with SUDHL5 [3] and 6.61 µM in the series with SUDHL10 [5].
Take `COCC(=O)N1CCN(c2ccc(OCc3nn(C)c4c3-c3cccc5c(CCCOc6cccc7ccccc67)c(C(=O)O)n(c35)CCCCOC4)cc2)CC1` (racemic) [Example 1-27, (rac)-3-({4-[4-(methoxyacetyl)piperazin-1-yl]phenoxy}methyl)-1-methyl-7-[3-(naphthalen-1-yloxy)propyl]-1,10,11,12,13,15-hexahydropyrazolo[4′,3′:9,10][1,6]oxazacycloundecino[8,7,6-hi]indole-8-carboxylic Acid]: the IC50 came out at 3.53e-06 M with SUDHL5 [1]; 2.95e-06 M in the series with SUDHL5 [2]; 0.00208 µM at MCL-1; 2.23e-05 M in the series with A2780; 8.75e-06 M with OPM2; 6.3e-06 M with SUDHL10 [4]. In addition, the IC50 in the series on SUDHL10 [6] (setting [7]) was determined as 8.44e-06 M. The EC50 in the series with SUDHL5 [3] turned out to be 4.42 µM; with SUDHL10 [5] it was 7.5 µM.
`Cc1nn(C)c2c1-c1cccc3c(CCCOc4cccc5ccccc45)c(C(=O)O)n(c13)CCCCOC2` (racemic) [Example 1-33, (rac)-1,3-dimethyl-7-[3-(naphthalen-1-yloxy)propyl]-1,10,11,12,13,15-hexahydropyrazolo[4′,3′:9,10][1,6]oxazacycloundecino[8,7,6-hi]indole-8-carboxylic Acid]: the IC50 was 7.47e-06 M with SUDHL5 [1]; 9.78e-06 M with SUDHL5 [2]; 0.009 µM against MCL-1; > 3.3e-05 M in the series on A2780; 2.23e-05 M in the series on OPM2; 1.83e-05 M in the series on SUDHL10 [4]. In addition, the IC50 with SUDHL10 [6] (setting [7]) was 2.19e-05 M. For the same compound, the results for the EC50 in the series on SUDHL5 [3] and with SUDHL10 [5] were 5.78 µM and 13.7 µM, respectively.
In the case of `CN(C)S(=O)(=O)N1CCN(c2ccc(OCc3nn(C)c4c3-c3cccc5c(CCCOc6cccc7ccccc67)c(C(=O)O)n(c35)CCCCCC4)cc2)CC1` (racemic) [Example 1-39, (rac)-3-({4-[4-(dimethysulfamoyl)piperazin-1-yl]phenoxy}methyl)-1-methyl-7-[3-(naphthalen-1-yloxy)propyl]-10,11,12,13,14,15-hexahydro-1H-pyrazolo[4′,3′:4,5]azacycloundecino[3,2,1-hi]indole-8-carboxylic Acid], the IC50 in the series on SUDHL5 [1] was 2.05e-06 M; in the series with SUDHL5 [2] it was 5.77e-06 M; against MCL-1, 0.00251 µM; in the series with A2780, > 3.3e-05 M; in the series on OPM2, > 3.3e-05 M; with SUDHL10 [4], 2.14e-05 M. In addition, the IC50 in the series on SUDHL10 [6] (setting [7]) came out at 1.82e-06 M. The results for the EC50 with SUDHL5 [3] and with SUDHL10 [5] were 3.47 µM and 2.45 µM, respectively.
Take `CN1CCCn2c(C(=O)O)c(CCCOc3cccc4ccccc34)c3cccc(c32)-c2c(CN3CCOCC3)nn(C)c2C1` (racemic) [Example 1-42, (rac)-7,9-dimethyl-11-(morpholin-4-ylmethyl)-1-[3-(naphthalen-1-yloxy)propyl]-4,5,6,7,8,9-hexahydropyrazolo[3′,4′:7,8][1,5]diazecino[9,10,1-hi]indole-2-carboxylic Acid]: the IC50 in the series on SUDHL5 [1] was 1.19e-05 M; with SUDHL5 [2], 7.08e-06 M; against MCL-1, 0.0202 µM; in the series on A2780 it was > 3.3e-05 M; in the series with OPM2, 3.29e-05 M; in the series on SUDHL10 [4] it was 1.64e-05 M. Also, the IC50 in the series with SUDHL10 [6] (setting [7]) is > 3.3e-05 M. The EC50 in the series on SUDHL5 [3] worked out at 10.9 µM; in the series on SUDHL10 [5], 14.9 µM.
With `Cn1nc(COc2ccc(C3(O)CCOCC3)cc2)c2c1COCC=CCn1c(C(=O)O)c(CCCOc3cccc4ccccc34)c3cccc-2c31` (racemic) [Example 1-60, (rac)-(E/Z)-3-{[4-(4-hydroxytetrahydro-2H-pyran-4-yl)phenoxy]methyl}-1-methyl-7-[3-(naphthalen-1-yloxy)propyl]-1,10,13,15-tetrahydropyrazolo[4′,3′ 9,10][1,6]oxazacycloundecino[8,7,6-hi]indole-8-carboxylic Acid], the IC50 with SUDHL5 [1] was 2.1e-05 M; in the series on SUDHL5 [2], 1.3e-05 M; at MCL-1 it was 0.0171 µM; in the series on A2780, 2.88e-05 M; in the series with OPM2 it was > 3.3e-05 M; in the series on SUDHL10 [4], 9.02e-06 M. Moreover, the IC50 with SUDHL10 [6] (setting [7]) was 3.27e-05 M. Also, the EC50 in the series on SUDHL5 [3] is 19.5 µM; in the series on SUDHL10 [5], 25.9 µM.
Take `COC1(c2ccc(OCc3nn(C)c4c3-c3cccc5c(CCCOc6cccc7ccccc67)c(C(=O)O)n(c35)CC=CCOC4)cc2)CCOCC1` (racemic) [Example 1-64, (rac)-(E/Z)-3-{[4-(4-methoxytetrahydro-2H-pyran-4-yl)phenoxy]methyl}-1-methyl-7-[3-(naphthalen-1-yloxy)propyl]-1,10,13,15-tetrahydropyrazolo[4′,3′:9,10][1,6]oxazacycloundecino[8,7,6-hi]indole-8-carboxylic Acid]: the IC50 is 2.65e-05 M in the series on SUDHL5 [1]; 1.2e-05 M in the series with SUDHL5 [2]; 0.0988 µM against MCL-1; 1.21e-05 M in the series with A2780; 2.15e-05 M in the series with OPM2; 7.4e-06 M with SUDHL10 [4]. For the same compound, the IC50 was > 3.3e-05 M with SUDHL10 [6] (setting [7]); 3.12e-05 M and 2.47e-05 M with SUDHL10 [6] (read-out: Cytotox SUDHL10 [M] (median), SUDHL10 cells, cytotoxicity induction, CellTiter-Glo, 5 h incubation, median). For the same compound, the EC50 amounted to 19.9 µM in the series on SUDHL5 [3] and 29.4 µM in the series with SUDHL10 [5].

The values above are taken from patent US10981932B2, “Macrocyclic indole derivatives” (Bayer Aktiengesellschaft, priority 2016, dated 2021).
